# Measured values reported in paper PMC12087874, “Biaryl Phosphates and Phosphonates as Selective Inhibitors of the Transcription Factor STAT4” (Angewandte Chemie (International Ed. in English), 2025).
# Molecular target: T1, STAT6 (Homo sapiens, UniProt P42226)
# T1 sequence (P42226 1-847): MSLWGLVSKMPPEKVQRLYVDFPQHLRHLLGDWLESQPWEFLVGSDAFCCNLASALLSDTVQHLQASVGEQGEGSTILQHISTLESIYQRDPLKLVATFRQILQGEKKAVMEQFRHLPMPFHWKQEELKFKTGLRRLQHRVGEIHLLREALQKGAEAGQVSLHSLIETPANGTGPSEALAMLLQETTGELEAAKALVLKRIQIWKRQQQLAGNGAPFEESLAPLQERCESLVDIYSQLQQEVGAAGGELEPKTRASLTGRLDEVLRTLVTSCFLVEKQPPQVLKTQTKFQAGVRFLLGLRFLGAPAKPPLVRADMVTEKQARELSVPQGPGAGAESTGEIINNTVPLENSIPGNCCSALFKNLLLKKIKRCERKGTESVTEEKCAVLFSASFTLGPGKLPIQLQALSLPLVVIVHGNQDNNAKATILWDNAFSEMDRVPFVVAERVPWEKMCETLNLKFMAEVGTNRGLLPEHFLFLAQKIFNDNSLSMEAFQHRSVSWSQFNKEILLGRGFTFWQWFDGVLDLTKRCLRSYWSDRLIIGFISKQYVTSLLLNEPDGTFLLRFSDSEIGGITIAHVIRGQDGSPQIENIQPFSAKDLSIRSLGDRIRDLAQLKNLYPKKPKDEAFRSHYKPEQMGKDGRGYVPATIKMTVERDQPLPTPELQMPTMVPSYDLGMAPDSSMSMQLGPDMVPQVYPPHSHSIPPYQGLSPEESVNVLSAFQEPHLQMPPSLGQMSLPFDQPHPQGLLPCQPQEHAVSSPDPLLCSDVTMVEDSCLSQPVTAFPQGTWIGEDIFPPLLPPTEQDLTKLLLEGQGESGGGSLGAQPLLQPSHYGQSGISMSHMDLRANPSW
# Experiment: Competitive fluorescence polarization (FP) assay, STAT6 SH2 domain
# Type: binding
# Details: for Ki: Ki derived from IC50; for IC50: mean ± SD, n = 3
# Method: Fluorescence polarization assays
# Competitive fluorescence polarization assays, which measure the abilities of test compounds (dissolved in DMSO) to displace a fluorescent-labeled peptide from the SH2 domain of a STAT protein, were carried out essentially as described. Proteins were used at the following final concentrations: 23 nM or 28 nM for STAT4; between 56 nM and 91 nM for STAT1; 107 nM or 110 nM for STAT3; between 131 nM and 177 nM for STAT5a; between 62 nM and 85 nM for STAT5b; and 101 nM or 106 nM for STAT6. These concentrations represent the approximate […]
# dissociation constant for peptide binding of the respective protein batches used in the assays.
# The following peptides were used: 5-carboxyfluorescein-GpYLPQNID-OH for STAT4; 5-carboxyfluorescein-GpYDKPHVL for STAT1; 5-carboxyfluorescein-GpYLPQTV-NH2 for STAT3; 5-carboxyfluorescein-GpYLVLDKW for STAT5a/b, and 5-carboxyfluorescein- […]
# Gp[…]-OH for STAT6. All peptides were used at a final concentration of 10 nM. The buffer consisted of 10 mM Tris (pH 8.0), 50 mM NaCl, 1 mM EDTA, 1 mM DTT, 0 .1 % Nonidet P-40 substitute, and 2 % DMSO. After incubation of protein and test compound for 1 h at room temperature, the fluorescent -labeled peptide was added. Samples were transferred to 384 - well microtiter plates and fluorescence polarization was read after an additional 60 min of incubation time. Measurements were performed in triplicate. Percent binding was calculated based on a logarithmic curve fit using OriginPro 8G software. IC 50 values were converted to Ki-values via the published equation[3] using the corresponding Excel spread sheet […]
# https://websites.umich.edu/~shaomengwanglab/software/calc_ki/index.html .
# Error bars represent standard deviations. Ligand efficiencies (LE) were calculated by the formula LE = -1,37 x log Ki / number of non-hydrogen atoms.[4] […]
Structure (SMILES),Ki [µM],IC50 [µM]
"O=P(O)(O)Oc1ccc(-c2ccccc2)cc1 [Compound 1, para‐biphenyl phosphate]",7.3 ± 0.4,15 ± 1
O=P(O)(O)Oc1ccc(-c2ccc3ccccc3c2)cc1 [Compound 6g],9.3 ± 1.1,19 ± 2
O=P(O)(O)Oc1ccc(-c2ccccc2)cc1F [Compound 6h],46 ± 3,90 ± 7
O=P(O)(O)Oc1ccc(-c2ccc3ccccc3c2)cc1F [Compound 6m],29 ± 2,57 ± 4
O=P(O)(O)C(F)(F)c1ccc(-c2ccc3ccccc3c2)cc1F [Compound 8a],15 ± 2,30 ± 3
Cc1cc(-c2ccc(C(F)(F)P(=O)(O)O)c(F)c2)cs1 [Compound 8k],13 ± 1,26 ± 2
